“And” between values parts separate entries of the source, which are not always exact repeats. Equal entries are not always repeated. “Also recorded” adds a separate entry of the source. Square brackets hold non-standard residues; d marks the D form. Peptide text beside a SMILES is read from it.
Assays:
[1] = test system: Trex1^-/- mice; assay: Trex1^-/- mice model of autoimmune disease (survival, H&E, heart qPCR, antinuclear antibody); assay type: in vivo, mouse; parameters: Score per animal, Heart (Fig. 7d) / Score per animal, Stomach (Fig. 7d) / Score per animal, Tongue (Fig. 7d) / Score per animal, Kidney (Fig. 7d) / Score per animal, Muscle (Fig. 7d): scale not given here; Ifnb1 mRNA level (Fig. 7e) / Cxcl10 mRNA level (Fig. 7e) / Il6 mRNA level (Fig. 7e): unit not given here
Source text: Aberrant accumulation of cytosolic self-dsDNA caused by loss-of-function mutations in Trex1 leads to overactivation of cGAS-STING pathway, which is associated with autoinflammatory diseases. To evaluate whether the optimized analogue XQ2B inhibits the overactivation of cGAS-STING pathway due to Trex1 deficiency, we first tested the effects of XQ2B on the expression of Ifnb1, Cxcl10 and Il6 in BMDMs harvested from Trex1^-/- mice (Supplementary Fig. 9a, b). […] We next evaluated the anti-inflammatory effect of XQ2B in Trex1^-/- mice. XQ2B (10 mg/kg) was intravenously injected into mice every other day. Six animals from each group were sacrificed on day seven to assess tissue pathology, and the rest (10 mice per group) were used to analyze survival for up to 11 days (Fig. 7b). […] Mice were killed and tissues were collected on day seven for histology and mRNA analysis.
(§1) C57BL/6 6–8 weeks old wild type (WT) mice were purchased from Gempharmatech. C57BL/6 Trex1^+/- mice were purchased from Cyagen. Trex1^-/- mice were generated by further mating the male and female Trex1^+/- mice, and 8-week-old male Trex1^-/- mice were used in the experiment. Mice were housed in groups of up to 5 mice/cage at 18 °C − 24 °C ambient temperatures with 40–60% humidity. Mice were maintained on a 12 h light/ dark cycle 6 am to 6 pm. Food and water were available ad libitum. Femurs and tibias were removed from sex-matched mice of 6–8 weeks old, and the ends were clipped. Marrow was pushed from bones by using a syringe, and cell clumps were broken apart into cell particles by pipetting in PBS, and passed through a 70 μm cell strainer. Cells were resuspended in red blood cell lysis buffer (Solarbio) for 5 min after being centrifuged with 200 × g for 5 min, and were resuspended in cell culture media (DMEM) with an additional M-CSF (50 ng/ml) after centrifugation, and then were seeded into a 12-well plate. Half of the cell culture media was replaced with a fresh medium on the third day, and performed a complete media change on the fifth day. BMDMs were used for subsequent experiments after the seventh day. All the animal experiments in these studies were approved and overseen by the ethics committee of the Laboratory Animal Center of Peking University Shenzhen Graduate School in accordance with the Policy on the Care, Welfare, and Treatment of Laboratory Animals. The assigned approval or accreditation number is AP0020005.
Tissues were resected and fixed successively in 4% paraformaldehyde, and embedded in paraffin according to the standard procedure, and then sectioned into 10-μm slices and placed on positively charged microscope slides. Sections of the brain were subjected to immunohistochemical (IHC) staining with an anti-HSV-1 antibody (Abcam, 1:100) and HRP-conjugated anti-rabbit IgG antibody (Cell Signaling, Cat# 7074, 1:200) according to standard procedures. Sections of the heart, stomach, tongue, kidney and muscle were stained with hematoxylin and eosin. Tissue sections were visualized using an Olympus IX73 microscope (20× Objective).
Anti-nuclear antibodies were performed with 1:160 diluted sera by using a FLUORO HEPANA TEST kit (MBL BEIJING BIOTECH) according to the manufacturer’s protocols.

[2] = test system: Trex1^-/- BMDMs; assay: qPCR of Ifnb1, Cxcl10, Il6 mRNA in Trex1-deficient macrophages; assay type: cell-based, mouse; parameters: key to Ifnb1 mRNA level (Fig. 7a) / Cxcl10 mRNA level (Fig. 7a) / Il6 mRNA level (Fig. 7a): fold change relative to WT BMDM group
Protocol: Fold changes are relative to WT BMDM group. p = 0.002 (Ifnb1); p = 0.008 (Cxcl10); p = 0.0005 (Il6). b Schematic representation illustrating the experimental design in the Trex1^-/- mice model of autoimmune diseases. c Survival curves of WT and Trex1^−/− mice treated with DMSO or XQ2B (10 mg/kg) every other day for 11 consecutive days (n = 10 mice per group). p = 0.0352. d WT mice (n = 6) or Trex1^-/- mice (n = 6) were injected intravenously with DMSO or 10 mg/kg XQ2B every other day for 7 consecutive days. Representative H&E-stained tissue sections from WT or Trex1^-/- mice treated with DMSO or XQ2B. The panels are at ×20 magnification. […] Scale bar, 50 μm. Data are representative of two independent experiments with similar results in (f), or three independent experiments in (a) or two independent experiments in (d, e). […] Source data are provided as a Source Data file.
The indicated cells were stimulated with either ISD (Sangon Biotech), HSV-1 (Provided by Dr. Zhengfan Jiang), HSV60mer (Sangon Biotech), SATE-cddA[70], 2’3’-cGAMP (Invivogen, Cat# tlrl-nacga23-1), ADU-S100 (MedChemExpress, Cat# HY-12885A) or Poly(I:C) (Invivogen, Cat# tlrl-pic) after XQ2 or XQ2B treatment. Total RNA was isolated from indicated cells that incubated with the drugs for indicated time or mice tissues by using NucleoZOL reagent (MACHEREY-NAGEL) according to the manufacturer’s instructions. The quantifications of mRNA levels were carried out by real-time PCR using a PerfectStart® Uni RT&qPCR Kit (TransGen Biotech) on the QuantStudio 5 qPCR machine (Applied Biosystems). Samples were carried out in triplicate and the target CT values were normalized to GAPDH CT values. Primers of qPCR used in this study can be found in Supplementary Table S2.
as §1, with “Half of the cell culture media was replaced with a fresh medium on the third day, and performed a complete media change on the fifth day. BMDMs were used for subsequent experiments after the seventh day. All the animal experiments in these studies were approved and overseen by the ethics committee of the Laboratory Animal Center of Peking University Shenzhen Graduate School in accordance with the Policy on the Care, Welfare, and Treatment of Laboratory Animals. The assigned approval or accreditation number is AP0020005.” left out

[3] = 10 mg/kg i.v. every other day, day seven

CC(C)C[C@@H]1NC(=O)[C@H](CCCNC(=N)N)NC(=O)[C@H](C(C)C)NC(=O)[C@@H]2CCCN2C(=O)[C@@H](Cc2ccccc2)NC(=O)[C@H](CC(C)C)NC(=O)[C@H](CCCNC(=N)N)NC(=O)[C@H]([C@@H](C)O)NC(=O)[C@H](C)NC(=O)[C@@H](Cc2ccccc2)NC1=O [XQ2B] (cyclo([dF]ATRL[dF]PVRL))
serum level of antinuclear antibody ([1]; 10 mg/kg i.v. every other day): markedly reduced by XQ2B treatment | heart Ifnb1, Cxcl10 and Il6 mRNA [1, 3]: significantly suppressed the mRNA level of Ifnb1, Cxcl10 and Il6 caused by Trex1 deficiency | tissue inflammation, H&E [1, 3]: ameliorates rather than reverses the systemic inflammation in Trex1-/- mice; also recorded: significantly attenuated the inflammation | survival of Trex1^-/- mice ([1]; 10 mg/kg i.v. every other day, up to 11 days, n = 10, 3 of 10 untreated died): none of the 10 mice treated with XQ2B died during treatment | Score per animal, Heart (Fig. 7d) ([1]; KO(XQ2B)): 5 (2×) and 8 (2×) and 6 and 4 and 7 and 9 | Score per animal, Kidney (Fig. 7d) ([1]; KO(XQ2B)): 3 (2×) and 6 and 5 (2×) and 2 and 4 and 7 | Score per animal, Muscle (Fig. 7d) ([1]; KO(XQ2B)): 4 (3×) and 2 and 6 and 3 (2×) and 5 | Score per animal, Stomach (Fig. 7d) ([1]; KO(XQ2B)): 3 and 8 (2×) and 6 and 9 and 5 (2×) and 7 | Score per animal, Tongue (Fig. 7d) ([1]; KO(XQ2B)): 3 and 7 (2×) and 8 and 5 (2×) and 6 and 4 | Cxcl10 mRNA level (Fig. 7e) ([1]; Trex1 KO+XQ2B, per animal): 99.6532 and 144.536 and 126.503 and 174.75 and 186.166 | Ifnb1 mRNA level (Fig. 7e) ([1]; Trex1 KO+XQ2B, per animal): 12.3782 and 6.326 and 6.444 and 5.852 and 6.524 | Il6 mRNA level (Fig. 7e) ([1]; Trex1 KO+XQ2B, per animal): 3.8548 and 4.605 and 4.215 and 10.789 and 5.351 | expression of Ifnb1, Cxcl10 and Il6 in Trex1^-/- BMDMs ([2]; 10 μM, 24 h): significantly suppressed the expression of Ifnb1, Cxcl10 and Il6 in Trex1^-/- BMDMs | Cxcl10 mRNA level (Fig. 7a) ([2]; Trex1-/- BMDMs, XQ2B vs DMSO): 8.243 and 7.282 and 8.602 | Ifnb1 mRNA level (Fig. 7a) ([2]; Trex1-/- BMDMs, XQ2B vs DMSO): 2.99 and 2.308 and 2.77 | Il6 mRNA level (Fig. 7a) ([2]; Trex1-/- BMDMs, XQ2B vs DMSO): 7.711 and 7.588 and 8.111

Reference: PMC10545747, “Development of cyclopeptide inhibitors of cGAS targeting protein-DNA interaction and phase separation” (Nature Communications, 2023)
